# Patent publication US11026943B2, “Aminoquinoline derivatives and uses thereof” (UNIVERSITY OF DELHI, priority 2012, dated 2021)
# Assay: Solubility (solvent listed in compound tables)
# Assay type: physicochemical
# Conditions: solvent named, Table 3
row,Compound,SOLUBILITY
1,OCCCNc1nc(NCCCNc2ccnc3cc(Cl)ccc23)nc(N2CCOCC2)n1 [SM 351],DMSO
2,OCCNc1nc(NCCNc2ccnc3cc(Cl)ccc23)nc(N2CCOCC2)n1 [SM 352],DMSO
3,OCCNc1nc(NCCCNc2ccnc3cc(Cl)ccc23)nc(N2CCOCC2)n1 [SM 353],DMSO
4,COc1ccc(Nc2nc(NCCCCNc3ccnc4cc(Cl)ccc34)nc(N3CCOCC3)n2)cc1 [SM 356],DMSO
5,Fc1ccc(Nc2nc(NCCCCNc3ccnc4cc(Cl)ccc34)nc(N3CCOCC3)n2)cc1 [SM 357],DMSO
6,CCc1ccc(Nc2nc(NCCCCNc3ccnc4cc(Cl)ccc34)nc(N3CCOCC3)n2)cc1 [SM 358],DMSO
7,Clc1ccc2c(NCCCCNc3nc(Nc4ccccc4)nc(N4CCOCC4)n3)ccnc2c1 [SM 359],DMSO
8,OCCCCNc1nc(NCCNc2ccnc3cc(Cl)ccc23)nc(N2CCOCC2)n1 [SM 360],DMSO
9,OCCCCNc1nc(NCCCNc2ccnc3cc(Cl)ccc23)nc(N2CCOCC2)n1 [SM 361],DMSO
10,OCCCCNc1nc(NCCCCNc2ccnc3cc(Cl)ccc23)nc(N2CCOCC2)n1 [SM 362],DMSO
11,OCCNc1nc(NCCNc2ccnc3cc(Cl)ccc23)nc(N2CCCCC2)n1 [SM 365],DMSO
12,OCCCNc1nc(NCCNc2ccnc3cc(Cl)ccc23)nc(N2CCCCC2)n1 [SM 370],DMSO
13,OCCCNc1nc(NCCCCNc2ccnc3cc(Cl)ccc23)nc(N2CCCCC2)n1 [SM 372],DMSO
14,OCCCCNc1nc(NCCNc2ccnc3cc(Cl)ccc23)nc(N2CCCCC2)n1 [SM 373],DMSO
15,OCCCCNc1nc(NCCCCNc2ccnc3cc(Cl)ccc23)nc(N2CCCCC2)n1 [SM 375],DMSO
16,Cc1cc(NCCCNc2ccnc3cc(Cl)ccc23)nc(Cl)n1 [SM 484A],DMSO
17,Cc1cc(Cl)nc(NCCCNc2ccnc3cc(Cl)ccc23)n1 [SM 484B],DMSO
18,Cc1cc(NCCCNc2ccnc3cc(Cl)ccc23)nc(N2CCCCC2)n1 [SM 485],DMSO
19,Cc1cc(Cl)nc(NCCNc2ccnc3cc(Cl)ccc23)n1 [SM 488B],DMSO

row,Compound,SOLUBILITY
1,Cc1cc(NCCNc2ccnc3cc(Cl)ccc23)nc(N2CCOCC2)n1 [SM 489],DMSO
2,Cc1cc(NCCNc2ccnc3cc(Cl)ccc23)nc(N2CCCCC2)n1 [SM 490],DMSO
3,Cc1cc(NCCNc2ccnc3cc(Cl)ccc23)nc(N2CCN(C)CC2)n1 [SM 491],DMSO
4,Cc1cc(NCCCNc2ccnc3cc(Cl)ccc23)nc(N2CCOCC2)n1 [SM 493],DMSO
5,Cc1cc(NCCCNc2ccnc3cc(Cl)ccc23)nc(N2CCN(C)CC2)n1 [SM 494],DMSO
6,CCN1CCN(c2nc(C)cc(NCCCNc3ccnc4cc(Cl)ccc34)n2)CC1 [SM 497],DMSO
7,Cc1cc(NCCCCNc2ccnc3cc(Cl)ccc23)nc(Cl)n1 [SM 498A],DMSO
8,Cc1cc(Cl)nc(NCCCCNc2ccnc3cc(Cl)ccc23)n1 [SM 498B],DMSO
9,Cc1cc(NCCCCNc2ccnc3cc(Cl)ccc23)nc(N2CCCCC2)n1 [SM 499],DMSO
10,Cc1cc(NCCCCNc2ccnc3cc(Cl)ccc23)nc(N2CCOCC2)n1 [SM 500],DMSO
11,Cc1cc(NCCCCNc2ccnc3cc(Cl)ccc23)nc(N2CCN(C)CC2)n1 [SM 501],DMSO
12,CCN1CCN(c2nc(C)cc(NCCCCNc3ccnc4cc(Cl)ccc34)n2)CC1 [SM 502],DMSO
13,Cc1cc(NCCCCCCNc2ccnc3cc(Cl)ccc23)nc(Cl)n1 [SM 504A],DMSO
14,Cc1cc(Cl)nc(NCCCCCCNc2ccnc3cc(Cl)ccc23)n1 [SM 504B],DMSO
15,Cc1cc(NCCCCCCNc2ccnc3cc(Cl)ccc23)nc(N2CCCCC2)n1 [SM 505],DMSO
16,Cc1cc(NCCCCCCNc2ccnc3cc(Cl)ccc23)nc(N2CCOCC2)n1 [SM 506],DMSO
17,Cc1cc(NCCCCCCNc2ccnc3cc(Cl)ccc23)nc(N2CCN(C)CC2)n1 [SM 507],DMSO
18,Clc1ccc2c(NCCNc3cc(Cl)nc(Cl)n3)ccnc2c1 [SM 695A],DMSO
